Assay results as given in patent US7491721B2, “Antimycobacterial pharmaceutical composition” (priority 2004, dated 2009).
Converted amounts (≈) assume the structure as drawn. Where two headings read alike, the source gives them in different places.

How the values were obtained:
M. tuberculosis isolates = test: microbe, parasite or virus in culture; type: cell-based, Mycobacterium tuberculosis; conditions: for MIC50 / MIC90: Mycobacterium tuberculosis; for MIC50: read-out: MIC against M. tuberculosis isolates, MIC50; for MIC90: read-out: MIC against M. tuberculosis isolates, MIC90
[1] = tested on: sensitive/resistant strains of M. tuberculosis; test: Murine model of pulmonary tuberculosis, text statements not split by strain; type: in vivo, Mycobacterium tuberculosis; conditions: monotherapy
resistant strain of MTB = type: in vivo, Mycobacterium tuberculosis; conditions: for dose giving 2 log reduction in the organs: animals infected with resistant strains
[2] = combination study, one month, doses mg/kg: (I) 25.0 where present, INH 25.0, RIF 20.0, PYR 150.0, ETH 100.0
[3] = combination study, three months, doses mg/kg: (I) 25.0 where present, INH 25.0, RIF 20.0, PYR 150.0, ETH 100.0
[4] = combination study, two months, doses mg/kg: (I) 25.0 where present, INH 25.0, RIF 20.0, PYR 150.0, ETH 100.0
[5] = monotherapy 12.5 mg/kg, 8 Weeks Treatment (two months)
[6] = monotherapy 12.5 mg/kg, 12 Weeks Treatment (three months)
[7] = monotherapy 12.5 mg/kg, one month of treatment
[8] = monotherapy 25 mg/kg, 8 Weeks Treatment (two months)
[9] = monotherapy 25 mg/kg, 12 Weeks Treatment (three months)
[10] = monotherapy 25 mg/kg, one month of treatment
[11] = monotherapy 50 mg/kg, 8 Weeks Treatment (two months)
[12] = monotherapy 50 mg/kg, 12 Weeks Treatment (three months)
[13] = monotherapy 50 mg/kg, one month of treatment

SMILES | MIC50 (M. tuberculosis isolates) | MIC90 (M. tuberculosis isolates) | dose giving 2 log reduction in the organs (resistant strain of MTB) | Mean Log10CFU in organs of mice infected with resistant strain of MTB, Lung (resistant strain of MTB; [2]) | Mean Log10CFU in organs of mice infected with resistant strain of MTB, Spleen (resistant strain of MTB; [2]) | Mean Log10CFU in organs of mice infected with resistant strain of MTB, Lung (resistant strain of MTB; [3]) | Mean Log10CFU in organs of mice infected with resistant strain of MTB, Spleen (resistant strain of MTB; [3]) | Mean Log10CFU in organs of mice infected with resistant strain of MTB, Lung (resistant strain of MTB; [4]) | Mean Log10CFU in organs of mice infected with resistant strain of MTB, Spleen (resistant strain of MTB; [4]) | Mean Log10CFU in organs of mice infected with resistant strain of MTB, Lung (resistant strain of MTB; [5]) | Mean Log10CFU in organs of mice infected with resistant strain of MTB, Spleen (resistant strain of MTB; [5]) | Mean Log10CFU in organs of mice infected with resistant strain of MTB, Lung (resistant strain of MTB; [6]) | Mean Log10CFU in organs of mice infected with resistant strain of MTB, Spleen (resistant strain of MTB; [6]) | Mean Log10CFU in organs of mice infected with resistant strain of MTB, Lung (resistant strain of MTB; [7]) | Mean Log10CFU in organs of mice infected with resistant strain of MTB, Spleen (resistant strain of MTB; [7]) | Mean Log10CFU in organs of mice infected with resistant strain of MTB, Lung (resistant strain of MTB; [8]) | Mean Log10CFU in organs of mice infected with resistant strain of MTB, Spleen (resistant strain of MTB; [8]) | Mean Log10CFU in organs of mice infected with resistant strain of MTB, Lung (resistant strain of MTB; [9]) | Mean Log10CFU in organs of mice infected with resistant strain of MTB, Spleen (resistant strain of MTB; [9]) | Mean Log10CFU in organs of mice infected with resistant strain of MTB, Lung (resistant strain of MTB; [10]) | further results
Cc1c(CN2CCN(c3cccc(C(F)(F)F)c3)CC2)cc(-c2ccccc2)n1NC(=O)c1ccncc1 [Compound of formula (I)] | 0.12 µg/mL | 0.25 µg/mL | 12.5 mg/kg | 2.86 ± 0.37 Log10CFU | 2.25 ± 0.18 Log10CFU | 1.30 ± 1.02 Log10CFU | 1.64 ± 1.12 Log10CFU | 2.37 ± 0.81 Log10CFU | 2.52 ± 0.48 Log10CFU | 3.32 ± 0.6 Log10CFU | 3.1 ± 1.13 Log10CFU | 2.51 ± 0.18 Log10CFU | 2.6 ± 0.34 Log10CFU | 2.97 ± 0.53 Log10CFU | 3.02 ± 0.22 Log10CFU | 2.83 ± 0.66 Log10CFU | 2.61 ± 0.56 Log10CFU | 1.86 ± 0.97 Log10CFU | 1.79 ± 0.92 Log10CFU | 2.70 ± 0.36 Log10CFU | MIC against M. tuberculosis isolates, Range (M. tuberculosis isolates; approximately 200 sensitive and resistant clinical isolates): 0.12 to 0.5 µg/mL; reduction in viable bacilli in the target organs as compared to control animals ([1]; one month (Table III)): > 2 log; animals with complete absence of mycobacterium ([1]; treated for three months): 33%; Mean Log10CFU in organs of mice infected with resistant strain of MTB, Spleen (resistant strain of MTB; [10]): 2.54 ± 0.20 Log10CFU; Mean Log10CFU in organs of mice infected with resistant strain of MTB, Lung (resistant strain of MTB; [11]): 2.51 ± 0.72 Log10CFU; Mean Log10CFU in organs of mice infected with resistant strain of MTB, Spleen (resistant strain of MTB; [11]): 2.37 ± 0.61 Log10CFU; Mean Log10CFU in organs of mice infected with resistant strain of MTB, Lung (resistant strain of MTB; [12]): 1.79 ± 0.92 Log10CFU; Mean Log10CFU in organs of mice infected with resistant strain of MTB, Spleen (resistant strain of MTB; [12]): 1.69 ± 0.88 Log10CFU; Mean Log10CFU in organs of mice infected with resistant strain of MTB, Lung (resistant strain of MTB; [13]): 2.59 ± 0.22 Log10CFU; Mean Log10CFU in organs of mice infected with resistant strain of MTB, Spleen (resistant strain of MTB; [13]): 2.32 ± 0.39 Log10CFU
NNC(=O)c1ccncc1 [Isoniazid] | 4 µg/mL (≈ 29.2 µM) | > 16 µg/mL | > 50 mg/kg | 5.23 ± 0.27 Log10CFU | 4.61 ± 0.43 Log10CFU | 5.37 ± 0.35 Log10CFU | 5.19 ± 0.65 Log10CFU | 5.15 ± 0.42 Log10CFU | 5.36 ± 0.84 Log10CFU | 6.01 ± 0.9 Log10CFU | 5.88 ± 0.41 Log10CFU | 5.1 ± 0.7 Log10CFU | 5.72 ± 0.17 Log10CFU | 5.47 ± 0.54 Log10CFU | 5.01 ± 0.45 Log10CFU | 5.91 ± 0.35 Log10CFU | 5.7 ± 0.34 Log10CFU | 4.79 ± 0.55 Log10CFU | 5.62 ± 0.63 Log10CFU | 5.34 ± 0.34 Log10CFU | Mean Log10CFU in organs of mice infected with resistant strain of MTB, Spleen (resistant strain of MTB; [10]): 4.97 ± 0.52 Log10CFU; Mean Log10CFU in organs of mice infected with resistant strain of MTB, Lung (resistant strain of MTB; [11]): 5.42 ± 0.74 Log10CFU; Mean Log10CFU in organs of mice infected with resistant strain of MTB, Spleen (resistant strain of MTB; [11]): 5.1 ± 0.61 Log10CFU; Mean Log10CFU in organs of mice infected with resistant strain of MTB, Lung (resistant strain of MTB; [12]): 4.76 ± 0.20 Log10CFU; Mean Log10CFU in organs of mice infected with resistant strain of MTB, Spleen (resistant strain of MTB; [12]): 5.64 ± 066 Log10CFU; Mean Log10CFU in organs of mice infected with resistant strain of MTB, Lung (resistant strain of MTB; [13]): 4.77 ± 0.61 Log10CFU; Mean Log10CFU in organs of mice infected with resistant strain of MTB, Spleen (resistant strain of MTB; [13]): 4.83 ± 0.68 Log10CFU
CO[C@H]1/C=C/O[C@@]2(C)Oc3c(C)c(O)c4c(O)c(c(/C=N/N5CCN(C)CC5)c(O)c4c3C2=O)NC(=O)/C(C)=C\C=C\[C@H](C)[C@H](O)[C@@H](C)[C@@H](O)[C@@H](C)[C@H](OC(C)=O)[C@@H]1C [Rifampicin] | 4 µg/mL (≈ 4.86 µM) | > 16 µg/mL |  | 3.05 ± 0.43 Log10CFU | 2.44 ± 0.32 Log10CFU | 0.94 ± 1.04 Log10CFU | 1.78 ± 1.38 Log10CFU | 2.45 ± 1.15 Log10CFU | 2.60 ± 0.59 Log10CFU |  |  |  |  |  |  |  |  |  |  |  | 
